Test results taken from publication PMC4256409, “Role of Phenylalanine and Valine^10 Residues in the Antimicrobial Activity and Cytotoxicity of Piscidin-1” (PLoS ONE, 2014).
Where no end group is shown, it is not given here.

How the values were obtained:
[1] = tested on: B. subtilis KCTC1022; format: cell-based, Bacillus subtilis; conditions: KCTC1022, 16 h
[2] = tested on: E. coli KCTC2593; format: cell-based, Escherichia coli; conditions: KCTC2593, 16 h
[3] = tested on: MDRPA CCARM 2095; format: cell-based, multidrug-resistant P. aeruginosa; conditions: broth microdilution, 37°C, 16 h, three independent experiments in triplicate, SD 14.0%
[4] = tested on: MDRAB CCARM 12036; format: cell-based, multidrug-resistant Acinetobacter baumanii; conditions: broth microdilution, 37°C, 16 h, three independent experiments in triplicate, SD 14.0%
[5] = tested on: Standard bacterial strains; format: cell-based; conditions: average over the 14 standard bacterial strains of Table 2
[6] = tested on: P. aeruginosa KCTC2513; format: cell-based, Pseudomonas aeruginosa; conditions: KCTC2513, 16 h
[7] = tested on: B. subtilis KCTC3068; format: cell-based, Bacillus subtilis; conditions: KCTC3068, 16 h
[8] = tested on: E.coli KCTC2571; format: cell-based, Escherichia coli; conditions: KCTC2571, 16 h
[9] = tested on: MDRST CCARM 8007; format: cell-based, multidrug-resistant S. typhimurium; conditions: broth microdilution, 37°C, 16 h, three independent experiments in triplicate, SD 14.0%
[10] = tested on: MDRAB CCARM 12037; format: cell-based, multidrug-resistant Acinetobacter baumanii; conditions: broth microdilution, 37°C, 16 h, three independent experiments in triplicate, SD 14.0%
[11] = tested on: MDRAB CCARM 12005; format: cell-based, multidrug-resistant Acinetobacter baumanii; conditions: broth microdilution, 37°C, 16 h, three independent experiments in triplicate, SD 14.0%
[12] = tested on: P. aeruginosa KCTC1637; format: cell-based, Pseudomonas aeruginosa; conditions: KCTC1637, 16 h
[13] = tested on: MDREC CCARM 1229; format: cell-based, multidrug-resistant E. coli; conditions: broth microdilution, 37°C, 16 h, three independent experiments in triplicate, SD 14.0%
[14] = tested on: S. aureus KCTC3881; format: cell-based, Staphylococcus aureus; conditions: KCTC3881, 16 h
[15] = tested on: S. aureus KCTC1621; format: cell-based, Staphylococcus aureus; conditions: KCTC1621, 16 h
[16] = tested on: MDRST CCARM 8003; format: cell-based, multidrug-resistant S. typhimurium; conditions: broth microdilution, 37°C, 16 h, three independent experiments in triplicate, SD 14.0%
[17] = tested on: MDRST CCARM 8009; format: cell-based, multidrug-resistant S. typhimurium; conditions: broth microdilution, 37°C, 16 h, three independent experiments in triplicate, SD 14.0%
[18] = tested on: MDRPA CCARM 2003; format: cell-based, multidrug-resistant P. aeruginosa; conditions: broth microdilution, 37°C, 16 h, three independent experiments in triplicate, SD 14.0%
[19] = tested on: MRSA CCARM 3090; format: cell-based, Methicillin-resistant S. aureus; conditions: CCARM 3090, 16 h
[20] = tested on: MDRAB CCARM 12035; format: cell-based, multidrug-resistant Acinetobacter baumanii; conditions: broth microdilution, 37°C, 16 h, three independent experiments in triplicate, SD 14.0%
[21] = tested on: MRSA CCARM 3126; format: cell-based, Methicillin-resistant S. aureus; conditions: CCARM 3126, 16 h
[22] = tested on: MDRPA CCARM 2163; format: cell-based, multidrug-resistant P. aeruginosa; conditions: broth microdilution, 37°C, 16 h, three independent experiments in triplicate, SD 14.0%
[23] = tested on: MRSA CCARM 3114; format: cell-based, Methicillin-resistant S. aureus; conditions: CCARM 3114, 16 h
[24] = tested on: S. epidermidis KCTC1917; format: cell-based, Staphylococcus epidermidis; conditions: KCTC1917, 16 h
[25] = tested on: Drug-resistant bacterial strains; conditions: average over the 18 drug-resistant bacterial strains of Table 3
Source text: Escherichia coli KCTC 1682, E. coli KCTC 2593, E. coli KCTC 2571, Salmonella typhimurium KCTC 1926, Pseudomonas aeruginosa KCTC 1637, P. aeruginosa KCTC 2004, P. aeruginosa KCTC 2513, Bacillus subtilis KCTC 3068, B. subtilis KCTC 1021, B. subtilis KCTC 1022, Staphylococcus epidermidis KCTC 1917, Staphylococcus aureus KCTC 1621, S. aureus KCTC 1916, and S. aureus KCTC 3881 were purchased from the Korean Collection for Type Cultures, Korea Research Institute of Bioscience & Biotechnology (Taejon, Korea). Methicillin-resistant S. aureus (MRSA) (CCARM 3089, CCARM 3090, CCARM 3108, CCARM 3114, and CCARM 3126), multidrug-resistant E. coli (MDREC) (CCARM 1229 and CCARM 1238), multidrug-resistant S. typhimurium (MDRST) (CCARM 8003, CCARM 8007, and CCARM 8009), multidrug-resistant Acinetobacter baumanii (MDRAB) (CCARM 12005, CCARM 12035, CCARM 12036, CCARM 12037), and multidrug-resistant P. aeruginosa (MDRPA) (CCARM 2002, CCARM 2003, CCARM 2095, and CCARM 2163) were obtained from the Culture Collection of Antibiotic-Resistant Microbes (CCARM) at Seoul Women’s University in Korea. The antimicrobial activities of the peptides against selected organisms, including three Gram-positive, three Gram-negative, and five antibiotic-resistant bacteria, were determined using a broth microdilution assay. Briefly, single colonies of bacteria and fungi were inoculated into Luria-Bertani (LB) medium and cultured overnight at 37°C. An aliquot of the culture was transferred to 10 mL of fresh LB and incubated for an additional 3–5 h at 37°C until it reached the mid-logarithmic phase. Two-fold serial dilutions of the peptides in 1% peptone were prepared. The serial dilutions (100 µL) were added to 100 µL of cells (2×10^6 colony-forming units (CFU)/mL) in 96-well microtiter plates and incubated at 37°C for 16 h. […] MIC values were calculated as the average of triplicate measurements from three independent assays.

[26] = tested on: MRSA CCARM 3108; format: cell-based, Methicillin-resistant S. aureus; conditions: CCARM 3108, 16 h
[27] = tested on: MDREC CCARM 1238; format: cell-based, multidrug-resistant E. coli; conditions: broth microdilution, 37°C, 16 h, three independent experiments in triplicate, SD 14.0%
[28] = tested on: E. coli KCTC1682; format: cell-based, Escherichia coli; conditions: KCTC1682, 16 h
[29] = tested on: B. subtilis KCTC1021; format: cell-based, Bacillus subtilis; conditions: KCTC1021, 16 h
[30] = tested on: P. aeruginosa KCTC2004; format: cell-based, Pseudomonas aeruginosa; conditions: KCTC2004, 16 h
[31] = tested on: S. typhimurium KCTC1926; format: cell-based, Salmonella typhimurium; conditions: KCTC1926, 16 h
[32] = tested on: MRSA CCARM3089; format: cell-based, Methicillin-resistant S. aureus; conditions: CCARM3089, 16 h
[33] = tested on: MDRPA CCARM 2002; format: cell-based, multidrug-resistant P. aeruginosa; conditions: broth microdilution, 37°C, 16 h, three independent experiments in triplicate, SD 14.0%
[34] = tested on: S. aureus KCTC1916; format: cell-based, Staphylococcus aureus; conditions: KCTC1916, 16 h

Sequence | MIC [1] | MIC [2] | MIC [3] | MIC [4] | Average MIC [5] | MIC [6] | MIC [7] | MIC [8] | MIC [9] | MIC [10] | MIC [11] | MIC [12] | MIC [13] | MIC [14] | MIC [15] | MIC [16] | MIC [17] | MIC [18] | MIC [19] | MIC [20] | also measured
FAHHIFRGIVHVGKTIHRLVTG [Pis-F2A] | 1.0 µM | 2.0 µM | 4.0 µM | 4.0 µM | 4.6 µM | 8.0 µM | 4.0 µM | 2.0 µM | 16 µM | 4.0 µM | 4.0 µM | 4.0 µM | 16 µM | 2.0 µM | 4.0 µM | 32 µM | 16 µM | 4.0 µM | 16 µM | 4.0 µM | MIC [21]: 16 µM; MIC [22]: 4.0 µM; MIC [23]: 16 µM; MIC [24]: 2.0 µM; Average MIC [25]: 12 µM; MIC [26]: 16 µM; MIC [27]: 16 µM; MIC [28]: 2.0 µM; MIC [29]: 8.0 µM; MIC [30]: 8.0 µM; MIC [31]: 16 µM; MIC [32]: 16 µM; MIC [33]: 4.0 µM; MIC [34]: 1.0 µM
FKHHIFRGIVHVGKTIHRLVTG [Pis-F2K] | 1.0 µM | 2.0 µM | 2.0 µM | 2.0 µM | 3.9 µM | 8.0 µM | 4.0 µM | 2.0 µM | 16 µM | 2.0 µM | 2.0 µM | 4.0 µM | 16 µM | 2.0 µM | 4.0 µM | 16 µM | 16 µM | 2.0 µM | 16 µM | 2.0 µM | MIC [21]: 16 µM; MIC [22]: 2.0 µM; MIC [23]: 16 µM; MIC [24]: 2.0 µM; Average MIC [25]: 9.8 µM; MIC [26]: 16 µM; MIC [27]: 16 µM; MIC [28]: 4.0 µM; MIC [29]: 4.0 µM; MIC [30]: 8.0 µM; MIC [31]: 8.0 µM; MIC [32]: 16 µM; MIC [33]: 2.0 µM; MIC [34]: 2.0 µM
FFHHIKRGIKHVGKTIHRLVTG [Pis-F6K/V10K] | 4.0 µM | 4.0 µM | 2.0 µM | 4.0 µM | 5.0 µM | 8.0 µM | 4.0 µM | 4.0 µM | 8.0 µM | 4.0 µM | 4.0 µM | 4.0 µM | 8.0 µM | 4.0 µM | 4.0 µM | 16 µM | 8.0 µM | 4.0 µM | 8.0 µM | 4.0 µM | MIC [21]: 8.0 µM; MIC [22]: 2.0 µM; MIC [23]: 8.0 µM; MIC [24]: 4.0 µM; Average MIC [25]: 6.4 µM; MIC [26]: 8.0 µM; MIC [27]: 8.0 µM; MIC [28]: 2.0 µM; MIC [29]: 8.0 µM; MIC [30]: 8.0 µM; MIC [31]: 8.0 µM; MIC [32]: 8.0 µM; MIC [33]: 4.0 µM; MIC [34]: 4.0 µM
FFHHIKRGIVHVGKTIHRLVTG [Pis-F6K] | 1.0 µM | 2.0 µM | 4.0 µM | 4.0 µM | 4.6 µM | 8.0 µM | 4.0 µM | 4.0 µM | 16 µM | 4.0 µM | 4.0 µM | 8.0 µM | 16 µM | 4.0 µM | 4.0 µM | 16 µM | 16 µM | 4.0 µM | 16 µM | 4.0 µM | MIC [21]: 16 µM; MIC [22]: 4.0 µM; MIC [23]: 16 µM; MIC [24]: 2.0 µM; Average MIC [25]: 11 µM; MIC [26]: 16 µM; MIC [27]: 16 µM; MIC [28]: 4.0 µM; MIC [29]: 4.0 µM; MIC [30]: 8.0 µM; MIC [31]: 8.0 µM; MIC [32]: 16 µM; MIC [33]: 4.0 µM; MIC [34]: 4.0 µM
KFHHIFRGIKHVGKTIHRLVTG [Pis-F1K/V10K] | 2.0 µM | 2.0 µM | 2.0 µM | 2.0 µM | 1.8 µM | 2.0 µM | 1.0 µM | 2.0 µM | 8.0 µM | 2.0 µM | 2.0 µM | 1.0 µM | 4.0 µM | 2.0 µM | 2.0 µM | 8.0 µM | 8.0 µM | 2.0 µM | 4.0 µM | 2.0 µM | MIC [21]: 4.0 µM; MIC [22]: 2.0 µM; MIC [23]: 8.0 µM; MIC [24]: 1.0 µM; Average MIC [25]: 4.0 µM; MIC [26]: 4.0 µM; MIC [27]: 4.0 µM; MIC [28]: 1.0 µM; MIC [29]: 4.0 µM; MIC [30]: 2.0 µM; MIC [31]: 1.0 µM; MIC [32]: 4.0 µM; MIC [33]: 2.0 µM; MIC [34]: 2.0 µM
